From ChEMBL document CHEMBL4715697, “Synthesis and biological activity of benzamide DNA minor groove binders” (2016)

Columns and labels:
Format in all cases: functional
[1] = system: NCI-H226; assay: Growth inhibition of human NCI-H226 cells assessed as cell growth at 100 uM incubated for 48 hrs by sulforhodamine B assay relative to control; details: read-out: Activity
[2] = system: MOLT-4; assay: Growth inhibition of human MOLT-4 cells assessed as cell growth at 0.1 uM incubated for 48 hrs by sulforhodamine B assay relative to control; details: read-out: Activity
[3] = system: OVCAR-5; assay: Growth inhibition of human OVCAR-5 cells assessed as cell growth at 0.01 uM incubated for 48 hrs by sulforhodamine B assay relative to control; details: read-out: Activity
[4] = system: BT-549; assay: Growth inhibition of human BT-549 cells assessed as cell growth at 0.01 uM incubated for 48 hrs by sulforhodamine B assay relative to control; details: read-out: Activity
[5] = system: SK-MEL-28; assay: Growth inhibition of human SK-MEL-28 cells assessed as cell growth at 100 uM incubated for 48 hrs by sulforhodamine B assay relative to control; details: read-out: Activity
[6] = system: COLO 205; assay: Growth inhibition of human COLO 205 cells assessed as cell growth at 0.01 uM incubated for 48 hrs by sulforhodamine B assay relative to control; details: read-out: Activity
[7] = system: HOP-62; assay: Growth inhibition of human HOP-62 cells incubated for 48 hrs by sulforhodamine B assay
[8] = system: 786-0; assay: Growth inhibition of human 786-0 cells incubated for 48 hrs by sulforhodamine B assay
[9] = system: OVCAR-5; assay: Growth inhibition of human OVCAR-5 cells incubated for 48 hrs by sulforhodamine B assay
[10] = system: SW-620; assay: Growth inhibition of human SW-620 cells assessed as cell growth at 100 uM incubated for 48 hrs by sulforhodamine B assay relative to control; details: read-out: Activity
[11] = system: UO-31; assay: Growth inhibition of human UO-31 cells assessed as cell growth at 1 uM incubated for 48 hrs by sulforhodamine B assay relative to control; details: read-out: Activity
[12] = system: HT-29; assay: Growth inhibition of human HT-29 cells incubated for 48 hrs by sulforhodamine B assay
[13] = system: NCI-H23; assay: Growth inhibition of human NCI-H23 cells incubated for 48 hrs by sulforhodamine B assay
[14] = system: RPMI-8226; assay: Growth inhibition of human RPMI-8226 cells incubated for 48 hrs by sulforhodamine B assay
[15] = system: SNB-19; assay: Growth inhibition of human SNB-19 cells assessed as cell growth at 0.1 uM incubated for 48 hrs by sulforhodamine B assay relative to control; details: read-out: Activity
[16] = system: CAKI-1; assay: Growth inhibition of human CAKI-1 cells incubated for 48 hrs by sulforhodamine B assay
[17] = system: U-251; assay: Growth inhibition of human U-251 cells assessed as cell growth at 1 uM incubated for 48 hrs by sulforhodamine B assay relative to control; details: read-out: Activity
[18] = system: SK-OV-3; assay: Growth inhibition of human SK-OV-3 cells assessed as cell growth at 1 uM incubated for 48 hrs by sulforhodamine B assay relative to control; details: read-out: Activity
[19] = system: SR; assay: Growth inhibition of human SR cells incubated for 48 hrs by sulforhodamine B assay
[20] = system: Hs-578T; assay: Growth inhibition of human Hs-578T cells assessed as cell growth at 1 uM incubated for 48 hrs by sulforhodamine B assay relative to control; details: read-out: Activity
[21] = system: Malme-3M; assay: Growth inhibition of human Malme-3M cells assessed as cell growth at 0.01 uM incubated for 48 hrs by sulforhodamine B assay relative to control; details: read-out: Activity
[22] = system: M14; assay: Growth inhibition of human M14 cells assessed as cell growth at 1 uM incubated for 48 hrs by sulforhodamine B assay relative to control; details: read-out: Activity
[23] = system: 786-0; assay: Growth inhibition of human 786-0 cells assessed as cell growth at 100 uM incubated for 48 hrs by sulforhodamine B assay relative to control; details: read-out: Activity
[24] = system: COLO 205; assay: Growth inhibition of human COLO 205 cells assessed as cell growth at 0.1 uM incubated for 48 hrs by sulforhodamine B assay relative to control; details: read-out: Activity
[25] = system: CAKI-1; assay: Growth inhibition of human CAKI-1 cells assessed as cell growth at 0.01 uM incubated for 48 hrs by sulforhodamine B assay relative to control; details: read-out: Activity
[26] = system: T47D; assay: Growth inhibition of human T47D cells incubated for 48 hrs by sulforhodamine B assay
[27] = system: MDA-MB-435; assay: Growth inhibition of human MDA-MB-435 cells assessed as cell growth at 0.1 uM incubated for 48 hrs by sulforhodamine B assay relative to control; details: read-out: Activity
[28] = system: SF-268; assay: Growth inhibition of human SF-268 cells incubated for 48 hrs by sulforhodamine B assay
[29] = system: OVCAR-8; assay: Growth inhibition of human OVCAR-8 cells assessed as cell growth at 100 uM incubated for 48 hrs by sulforhodamine B assay relative to control; details: read-out: Activity
[30] = system: K562; assay: Growth inhibition of human K562 cells assessed as cell growth at 100 uM incubated for 48 hrs by sulforhodamine B assay relative to control; details: read-out: Activity
[31] = system: OVCAR-4; assay: Growth inhibition of human OVCAR-4 cells assessed as cell growth at 0.1 uM incubated for 48 hrs by sulforhodamine B assay relative to control; details: read-out: Activity
[32] = system: IGROV-1; assay: Growth inhibition of human IGROV-1 cells assessed as cell growth at 0.01 uM incubated for 48 hrs by sulforhodamine B assay relative to control; details: read-out: Activity
[33] = read-out: LC50 (the source's name)
[34] = read-out: pLC50 (the source's name) (converted)

## CC(=O)Nc1cc(CCl)cc(NC(=O)c2ccc(C(=O)Nc3cccc(NC(=O)CCCN(C)C)c3)cc2)c1
[1]
  growth at 100 µM: 87%
[2]
  growth at 0.1 µM: 95%
[3]
  growth at 0.01 µM: 92%
[4]
  growth at 0.01 µM: 104%
[5]
  growth at 100 µM: 92%
[6]
  growth at 0.01 µM: 112%
[7]; read-out: GI50
  GI50: > 100 µM
[7]; [33]
  CC50: > 100 µM
[7]; read-out: TGI
  TGI: > 100 µM
[7]; read-out: pGI50 (converted)
  GI50: > 100 µM
[7]; [34]
  CC50: > 100 µM
[7]; read-out: pTGI
  TGI: > 100 µM
[8]; read-out: GI50
  GI50: > 100 µM
[8]; read-out: LC50
  LC50: > 100 µM
[8]; read-out: TGI
  TGI: > 100 µM
[8]; read-out: pGI50 (converted)
  GI50: > 100 µM
[8]; read-out: pLC50 (converted)
  LC50: > 100 µM
[8]; read-out: pTGI
  TGI: > 100 µM
[9]; read-out: GI50
  GI50: > 100 µM
[9]; read-out: LC50
  LC50: > 100 µM
[9]; read-out: TGI
  TGI: > 100 µM
[9]; read-out: pGI50 (converted)
  GI50: > 100 µM
[9]; read-out: pLC50 (converted)
  LC50: > 100 µM
[9]; read-out: pTGI
  TGI: > 100 µM
[10]
  growth at 100 µM: 92%
[11]
  growth at 1 µM: 97%
[12]; read-out: GI50
  GI50: > 100 µM
[12]; [33]
  CC50: > 100 µM
[12]; read-out: TGI
  TGI: > 100 µM
[12]; read-out: pGI50 (converted)
  GI50: > 100 µM
[12]; [34]
  CC50: > 100 µM
[12]; read-out: pTGI
  TGI: > 100 µM
[13]; read-out: GI50
  GI50: > 100 µM
[13]; [33]
  CC50: > 100 µM
[13]; read-out: TGI
  TGI: > 100 µM
[13]; read-out: pGI50 (converted)
  GI50: > 100 µM
[13]; [34]
  CC50: > 100 µM
[13]; read-out: pTGI
  TGI: > 100 µM
[14]; read-out: GI50
  GI50: > 100 µM
[14]; [33]
  CC50: > 100 µM
[14]; read-out: TGI
  TGI: > 100 µM
[14]; read-out: pGI50 (converted)
  GI50: > 100 µM
[14]; [34]
  CC50: > 100 µM
[14]; read-out: pTGI
  TGI: > 100 µM
[15]
  growth at 0.1 µM: 104%
[16]; read-out: GI50
  GI50: > 100 µM
[16]; [33]
  CC50: > 100 µM
[16]; read-out: TGI
  TGI: > 100 µM
[16]; read-out: pGI50 (converted)
  GI50: > 100 µM
[16]; [34]
  CC50: > 100 µM
[16]; read-out: pTGI
  TGI: > 100 µM
[17]
  growth at 1 µM: 93%
[18]
  growth at 1 µM: 106%
[19]; read-out: GI50
  GI50: > 100 µM
[19]; [33]
  CC50: > 100 µM
[19]; read-out: TGI
  TGI: > 100 µM
[19]; read-out: pGI50 (converted)
  GI50: > 100 µM
[19]; [34]
  CC50: > 100 µM
[19]; read-out: pTGI
  TGI: > 100 µM
[20]
  growth at 1 µM: 109%
[21]
  growth at 0.01 µM: 99%
[22]
  growth at 1 µM: 103%
[23]
  growth at 100 µM: 122%
[24]
  growth at 0.1 µM: 108%
[25]
  growth at 0.01 µM: 100%
[26]; read-out: GI50
  GI50: > 100 µM
[26]; [33]
  CC50: > 100 µM
[26]; read-out: TGI
  TGI: > 100 µM
[26]; read-out: pGI50 (converted)
  GI50: > 100 µM
[26]; [34]
  CC50: > 100 µM
[26]; read-out: pTGI
  TGI: > 100 µM
[27]
  growth at 0.1 µM: 93%
[28]; read-out: GI50
  GI50: > 100 µM
[28]; read-out: LC50
  LC50: > 100 µM
[28]; read-out: TGI
  TGI: > 100 µM
[28]; read-out: pGI50 (converted)
  GI50: > 100 µM
[28]; read-out: pLC50 (converted)
  LC50: > 100 µM
[28]; read-out: pTGI
  TGI: > 100 µM
[29]
  growth at 100 µM: 96%
[30]
  growth at 100 µM: 106%
[31]
  growth at 0.1 µM: 94%
[32]
  growth at 0.01 µM: 113%
